Molecules are shown by their SMILES. Where two headings read alike, the source gives them in different places.

Assay [1] has as its target EED (1-441)-His protein (Homo sapiens (Human), UniProt O75530). As to the kind of experiment: EED-H3K27Me3 peptide competition binding assay by AlphaScreen. Particulars: EED Alphascreen binding Qualified assay. The procedure:
Then 4 μL of detection beads mix was added to the plate and incubate in the dark at the rt for 1 h. The final concentration of donor and acceptor beads was 10 μg/mL for each. […] The data were then fit to a dose response equation using the program Helios (Novartis) to get the IC50 values. […] Sebaugh, J. […] Each compound was counter screened to determine if it interfered with the AlphaScreen beads. […] The plates were then incubated for 1 h at rt in dark before being read on EnVison.
(In general: Bead proximity is the source of the signal in Alpha formats.)

Assay [2] deals with wild type PRC2 (wtPRC2) complex (Homo sapiens (Human), UniProt O75530). The assay can be described thus: EED LC-MS assay. In kind it is biochemical. The method, then:
EED LC-MS Assay Representative compounds of the present invention were serially and separately diluted 3-fold in DMSO to obtain a total of eight or twelve concentrations. […] A 6 μL solution of 3 μM of the peptide substrate H3K27Me0 (histone H3[21-44]-biotin) in reaction buffer was added to initiate each reaction. […] The data were then fit to a dose response equation using the program Helios to get the IC50 values of the test compound.

For assay [3], the system named is H3K27 methylation in G401 cell. As to the kind of experiment: ELISA (H3K27 methylation) assay. In kind it is cell-based. Particulars: Homo sapiens, G-401, ELISA Qualified assay, 48 h, read-out: (c) IC50. The method, then:
ELISA (H3K27 Methylation) Assay
Representative compounds of the present invention were serially and separately diluted 3-fold in DMSO to obtain a total of eight or twelve concentrations. Then the compounds were added to G401 cell cultured in 384-well plate at 1:500 dilution to obtain the highest concentration of 20 μM. The cells were further cultured for 48 h before ELISA procedure.
ELISA protocol: Cell lysates were transferred to the wells of a 384-well plate and the final volume was adjusted to 50 μL per well with PBS. The plate was sealed, centrifuged at 2,000 rpm for 2 min and incubated at 4° C. for about 16 h. The plate was washed with TBST buffer (1×TBS (10×TBS: 24.2 g Tris (Sigma, T6066), 80 g NaCl (Sigma, S3014) to 1 L of water and adjust pH to 7.6 with HCl) with 0.1% Tween-20). Blocking buffer (TBST, 5% BSA; 50 μL per well) was added and the plate was incubated for 1 h at rt. The blocking buffer was removed and primary antibody was added (30 μL per well). […] The primary antibody was incubated in the plate at rt for 1 h. The wells were washed with TBST and incubated with secondary antibody for 1 h at rt. […] After 1 h of incubation at rt, the wells were washed with TBST. […] The signal was read using a PerkinElmer Envision Reader. The H3K27 methylation readouts were normalized using H3 signal and then percentage inhibition was calculated against the samples treated with DMSO. The data were then fit to a dose response curve using the program Helios to get the IC50 values of the test compound.
For orientation: An ELISA detects its analyte on a solid surface through an enzyme-linked reagent.

Setting [4] is: EED LC-MS Qualified assay, read-out: (b) IC50.

Sequence of wild type PRC2 (wtPRC2) complex (O75530 whole entry): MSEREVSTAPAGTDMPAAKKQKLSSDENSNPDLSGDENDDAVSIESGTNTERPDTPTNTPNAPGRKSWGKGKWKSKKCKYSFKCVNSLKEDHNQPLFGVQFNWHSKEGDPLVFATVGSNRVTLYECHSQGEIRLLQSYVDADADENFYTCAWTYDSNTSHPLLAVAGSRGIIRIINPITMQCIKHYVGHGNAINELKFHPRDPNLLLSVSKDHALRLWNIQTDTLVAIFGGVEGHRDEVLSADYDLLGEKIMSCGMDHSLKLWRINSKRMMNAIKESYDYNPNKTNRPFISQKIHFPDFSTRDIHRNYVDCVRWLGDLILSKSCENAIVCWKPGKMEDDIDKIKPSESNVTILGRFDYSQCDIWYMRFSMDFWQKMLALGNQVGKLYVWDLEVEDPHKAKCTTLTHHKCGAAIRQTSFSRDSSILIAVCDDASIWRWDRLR
Sequence of wild type PRC2 (wtPRC2) complex (Q15910 whole entry partner): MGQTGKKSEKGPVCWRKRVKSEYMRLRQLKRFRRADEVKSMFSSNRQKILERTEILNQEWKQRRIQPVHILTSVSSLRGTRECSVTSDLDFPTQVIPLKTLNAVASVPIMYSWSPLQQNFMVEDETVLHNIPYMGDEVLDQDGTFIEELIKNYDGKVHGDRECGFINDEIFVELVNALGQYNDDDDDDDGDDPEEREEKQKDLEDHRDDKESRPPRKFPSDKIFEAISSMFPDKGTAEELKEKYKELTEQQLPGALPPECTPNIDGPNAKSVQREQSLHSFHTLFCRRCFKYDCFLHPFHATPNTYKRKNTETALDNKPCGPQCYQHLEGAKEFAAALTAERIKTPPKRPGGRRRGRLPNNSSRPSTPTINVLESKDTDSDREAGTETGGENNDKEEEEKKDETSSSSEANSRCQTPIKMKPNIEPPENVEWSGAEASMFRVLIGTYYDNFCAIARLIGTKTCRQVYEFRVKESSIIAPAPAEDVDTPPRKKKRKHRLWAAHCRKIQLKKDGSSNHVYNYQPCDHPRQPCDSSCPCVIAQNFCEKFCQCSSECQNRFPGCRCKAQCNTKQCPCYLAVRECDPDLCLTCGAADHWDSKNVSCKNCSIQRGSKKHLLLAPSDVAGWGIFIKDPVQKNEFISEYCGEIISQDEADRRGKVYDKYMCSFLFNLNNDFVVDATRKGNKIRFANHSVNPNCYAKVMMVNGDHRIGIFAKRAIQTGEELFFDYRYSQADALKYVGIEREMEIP
Sequence of wild type PRC2 (wtPRC2) complex (Q15022 whole entry partner): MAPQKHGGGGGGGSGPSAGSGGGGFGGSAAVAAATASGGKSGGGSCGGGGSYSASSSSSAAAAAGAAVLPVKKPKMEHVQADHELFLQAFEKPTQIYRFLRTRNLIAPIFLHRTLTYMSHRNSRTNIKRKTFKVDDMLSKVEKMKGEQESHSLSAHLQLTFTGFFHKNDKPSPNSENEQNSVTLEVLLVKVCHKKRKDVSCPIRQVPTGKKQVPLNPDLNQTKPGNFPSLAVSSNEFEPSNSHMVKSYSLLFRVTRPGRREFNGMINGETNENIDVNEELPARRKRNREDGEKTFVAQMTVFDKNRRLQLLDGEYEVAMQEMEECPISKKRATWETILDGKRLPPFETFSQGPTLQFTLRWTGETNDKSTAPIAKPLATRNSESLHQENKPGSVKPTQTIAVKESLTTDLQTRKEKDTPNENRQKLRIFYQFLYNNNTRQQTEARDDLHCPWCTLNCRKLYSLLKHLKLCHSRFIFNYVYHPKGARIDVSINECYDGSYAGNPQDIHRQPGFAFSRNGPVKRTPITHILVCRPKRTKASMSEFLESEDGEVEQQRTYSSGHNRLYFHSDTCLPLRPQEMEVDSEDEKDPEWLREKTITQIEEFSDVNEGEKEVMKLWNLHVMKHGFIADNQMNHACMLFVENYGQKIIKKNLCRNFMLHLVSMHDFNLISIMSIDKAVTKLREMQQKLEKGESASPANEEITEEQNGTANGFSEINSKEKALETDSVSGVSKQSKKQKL
Sequence of EED (1-441)-His protein (O75530 whole entry): as the sequence (O75530 whole entry) above

Consider `N#Cc1ncn2c(NCc3c(F)ccc4c3CCO4)ncc(-c3cccnc3CO)c12` [Example 78, 5-(((5-fluoro-2,3-dihydrobenzofuran-4-yl)methyl)amino)-8-(2-(hydroxymethyl)pyridin-3-yl)imidazo[1,5-c]pyrimidine-1-carbonitrile], for which the IC50 in assay [1] is 0.0051 µM; in assay [2] (setting [4]), 0.0162 µM; in assay [3] it was 0.0179 µM.
With `Fc1ccc2c(c1CNc1ncc(-c3cccnc3F)c3cncn13)CCO2` [Example 21, N-((5-fluoro-2,3-dihydrobenzofuran-4-yl)methyl)-8-(2-fluoropyridin-3-yl)imidazo[1,5-c]pyrimidin-5-amine], the half-maximal inhibitory concentration (IC50) was found to be 0.0195 µM in assay [1], 0.0217 µM in assay [2] (setting [4]) and 0.0354 µM in assay [3].
With `Cc1cc(-c2cnc(NCc3c(F)ccc4c3CCO4)n3cncc23)ccn1` [Example 24, N-((5-fluoro-2,3-dihydrobenzofuran-4-yl)methyl)-8-(2-methylpyridin-4-yl)imidazo[1,5-c]pyrimidin-5-amine], the IC50 in assay [1] came to 0.0209 µM; in assay [2] (setting [4]), 0.0265 µM; in assay [3] it was 0.0521 µM.
On to `Cc1ncncc1-c1cnc(NCc2c(F)ccc3c2CCO3)n2cncc12` [Example 47, N-((5-fluoro-2,3-dihydrobenzofuran-4-yl)methyl)-8-(4-methylpyrimidin-5-yl)imidazo[1,5-c]pyrimidin-5-amine], for which the IC50 came out at 0.0081 µM in assay [1], 0.0143 µM in assay [2] (setting [4]) and 0.0424 µM in assay [3].
As to `Cc1ncccc1-c1cnc(NCc2c(F)ccc3c2CCO3)n2cnc(C#C[Si](C)(C)C)c12` [Example 116, N-((5-fluoro-2,3-dihydrobenzofuran-4-yl)methyl)-8-(2-methylpyridin-3-yl)-1-((trimethylsilyl)ethynyl)imidazo[1,5-c]pyrimidin-5-amine], the IC50 stood at 0.0083 µM in assay [1], 0.0087 µM in assay [2] and 0.09 µM in assay [3].
For the molecule `Fc1cc(-c2cnc(NCc3c(F)ccc4c3CCO4)n3cncc23)ccn1` [Example 35, N-((5-fluoro-2,3-dihydrobenzofuran-4-yl)methyl)-8-(2-fluoropyridin-4-yl)imidazo[1,5-c]pyrimidin-5-amine], the figures for the IC50 in assay [1], in assay [2] (setting [4]) and in assay [3] were 0.0155 µM, 0.026 µM and 0.0744 µM, respectively.
On the same counts, the results for `Cc1ncccc1-c1cnc(NCc2c(F)ccc3c2CCO3)n2cnc(C(=O)NN)c12` [Example 108, 5-(((5-fluoro-2,3-dihydrobenzofuran-4-yl)methyl)amino)-8-(2-methylpyridin-3-yl)imidazo[1,5-c]pyrimidine-1-carbohydrazide] are 0.007 µM, 0.0136 µM and 0.0131 µM.
Regarding `CCS(=O)(=O)c1ncn2c(NCc3c(F)ccc4c3CCO4)ncc(-c3cnc(C)nc3C)c12` [Example 104, 8-(2,4-dimethylpyrimidin-5-yl)-1-(ethylsulfonyl)-N-((5-fluoro-2,3-dihydrobenzofuran-4-yl)methyl)imidazo[1,5-c]pyrimidin-5-amine], the IC50 worked out at 0.003 µM in assay [1], 0.0105 µM in assay [2] (setting [4]) and 0.0021 µM in assay [3].
In the same order, the values of `Fc1ccc2c(c1CNc1ncc(-c3cccnc3)c3cncn13)CCO2` [Example 28, N-((5-fluoro-2,3-dihydrobenzofuran-4-yl)methyl)-8-(pyridin-3-yl)imidazo[1,5-c]pyrimidin-5-amine] are 0.0199 µM, 0.0218 µM and 0.0506 µM.
Consider `N#Cc1ncn2c(NCc3c(F)ccc4c3CCO4)ncc(-c3ccc(CN4CCCC4)cc3)c12` [Example 71, 5-(((5-fluoro-2,3-dihydrobenzofuran-4-yl)methyl)amino)-8-(4-(pyrrolidin-1-ylmethyl)phenyl)imidazo[1,5-c]pyrimidine-1-carbonitrile], for which the IC50 in assay [1] came out at 0.0079 µM; in assay [2] (setting [4]) it was 0.018 µM; in assay [3], 0.0041 µM.
In the case of `Cc1nc(C(=O)N(C)C)ccc1-c1cnc(NCc2c(F)ccc3c2CCO3)n2cncc12` [Example 63, 5-(5-(((5-fluoro-2,3-dihydrobenzofuran-4-yl)methyl)amino)imidazo[1,5-c]pyrimidin-8-yl)-N,N,6-trimethylpicolinamide], the IC50 in assay [1] is 0.0095 µM; in assay [2] (setting [4]), 0.0267 µM; in assay [3], 0.0618 µM.
Regarding `CC(C)Oc1ccc(-c2ncn3c(NCc4c(F)ccc5c4CCO5)ncc(-c4ccc(S(C)(=O)=O)cc4)c23)cc1` [Example 117, N-((5-fluoro-2,3-dihydrobenzofuran-4-yl)methyl)-1-(4-isopropoxyphenyl)-8-(4-(methylsulfonyl)phenyl)imidazo[1,5-c]pyrimidin-5-amine], the IC50 in assay [1] is 0.0114 µM; in assay [2] (setting [4]), 0.0195 µM; in assay [3], 0.0585 µM.
As to `OCCNc1ncc(-c2cnc(NCc3c(F)ccc4c3CCO4)n3cncc23)cn1` [Example 44, 2-((5-(5-(((5-fluoro-2,3-dihydrobenzofuran-4-yl)methyl)amino)imidazo[1,5-c]pyrimidin-8-yl)pyrimidin-2-yl)amino)ethan-1-ol], the results for the IC50 in assay [1], in assay [2] (setting [4]) and in assay [3] were 0.0086 µM, 0.0195 µM and 0.0645 µM, respectively.
With `CCOC(=O)c1ncn2c(NCc3c(F)ccc4c3CCO4)ncc(-c3ccc(S(C)(=O)=O)cc3)c12` [Example 92, ethyl 5-(((5-fluoro-2,3-dihydrobenzofuran-4-yl)methyl)amino)-8-(4-(methylsulfonyl)phenyl)imidazo[1,5-c]pyrimidine-1-carboxylate], the IC50 in assay [1] was determined as 0.0054 µM; in assay [2] (setting [4]), 0.0059 µM; in assay [3], 0.0007 µM.
With `CS(=O)(=O)c1ncn2c(NCc3c(F)ccc4c3CCO4)ncc(Br)c12` [Example 103, 8-bromo-N-((5-fluoro-2,3-dihydrobenzofuran-4-yl)methyl)-1-(methylsulfonyl)imidazo[1,5-c]pyrimidin-5-amine], the IC50 in assay [1] was found to be 0.005 µM; in assay [2] (setting [4]), 0.01 µM; in assay [3], 0.0361 µM.
As for `CCOC(=O)c1ncn2c(NCc3c(F)ccc4c3CCO4)ncc(-c3ccc(C)nc3C)c12` [Example 93, ethyl 8-(2,6-dimethylpyridin-3-yl)-5-(((5-fluoro-2,3-dihydrobenzofuran-4-yl)methyl)amino)imidazo[1,5-c]pyrimidine-1-carboxylate], the IC50 in assay [1] was 0.0049 µM; in assay [2] (setting [4]), 0.0057 µM; in assay [3], 0.0051 µM.
For the molecule `Cc1nn(C(C)C)cc1-c1cnc(NCc2c(F)ccc3c2CCO3)n2cncc12` [Example 53, N-((5-fluoro-2,3-dihydrobenzofuran-4-yl)methyl)-8-(1-isopropyl-3-methyl-1H-pyrazol-4-yl)imidazo[1,5-c]pyrimidin-5-amine], the IC50 in assay [1] came out at 0.0099 µM; in assay [2] (setting [4]) it was 0.0231 µM; in assay [3], 0.0948 µM.
In the same order, the values of `CS(=O)(=O)c1ncn2c(NCc3c(F)ccc4c3CCO4)ncc(-c3cccnc3C(F)F)c12` [Example 13, 8-(2-(Difluoromethyl)pyridin-3-yl)-N-((5-fluoro-2,3-dihydrobenzofuran-4-yl)methyl)-1-(methylsulfonyl)imidazo[1,5-c]pyrimidin-5-amine] are 0.0037 µM, 0.0077 µM and 0.0023 µM.
Take `Cc1nc(C(F)F)ccc1-c1cnc(NCc2c(F)ccc3c2CCO3)n2cncc12` [Example 57, 8-(6-(difluoromethyl)-2-methylpyridin-3-yl)-N-((5-fluoro-2,3-dihydrobenzofuran-4-yl)methyl)imidazo[1,5-c]pyrimidin-5-amine]: the IC50 in assay [1] was found to be 0.0075 µM; in assay [2] (setting [4]) it was 0.0125 µM; in assay [3], 0.0541 µM.
In the case of `CS(=O)(=O)c1ccc(-c2cnc(NCc3c(F)ccc4c3CCO4)n3cncc23)cc1` [Example 19, N-((5-fluoro-2,3-dihydrobenzofuran-4-yl)methyl)-8-(4-(methylsulfonyl)phenyl)imidazo[1,5-c]pyrimidin-5-amine], the IC50 in assay [1] was found to be 0.0085 µM; in assay [2] (setting [4]), 0.0104 µM; in assay [3], 0.0601 µM.
As to `Cc1ncccc1-c1cnc(NCc2c(F)ccc3c2CCO3)n2cnc(-c3ccccc3)c12` [Example 111, N-((5-fluoro-2,3-dihydrobenzofuran-4-yl)methyl)-8-(2-methylpyridin-3-yl)-1-phenylimidazo[1,5-c]pyrimidin-5-amine], the IC50 in assay [1] is 0.0076 µM; in assay [2] (setting [4]), 0.0096 µM; in assay [3] it was 0.0238 µM.

As usually defined, the IC50 is the point on the concentration scale where inhibition reaches its midpoint.

Source of the values: patent US10676479B2, “Imidazolepyridine compounds and uses thereof” (Novartis AG, priority 2016, dated 2020).
